Results on 45 compounds are retold here after patent publication US9765075B2, “Substituted bridged urea analogs as sirtuin modulators” (GLAXOSMITHKLINE LLC, priority 2013, dated 2017).

Each structure is given as a SMILES string.

The target in the first assay is T1, SIRT1 (Homo sapiens, UniProt Q96EB6).
T1 sequence (Q96EB6 1-747): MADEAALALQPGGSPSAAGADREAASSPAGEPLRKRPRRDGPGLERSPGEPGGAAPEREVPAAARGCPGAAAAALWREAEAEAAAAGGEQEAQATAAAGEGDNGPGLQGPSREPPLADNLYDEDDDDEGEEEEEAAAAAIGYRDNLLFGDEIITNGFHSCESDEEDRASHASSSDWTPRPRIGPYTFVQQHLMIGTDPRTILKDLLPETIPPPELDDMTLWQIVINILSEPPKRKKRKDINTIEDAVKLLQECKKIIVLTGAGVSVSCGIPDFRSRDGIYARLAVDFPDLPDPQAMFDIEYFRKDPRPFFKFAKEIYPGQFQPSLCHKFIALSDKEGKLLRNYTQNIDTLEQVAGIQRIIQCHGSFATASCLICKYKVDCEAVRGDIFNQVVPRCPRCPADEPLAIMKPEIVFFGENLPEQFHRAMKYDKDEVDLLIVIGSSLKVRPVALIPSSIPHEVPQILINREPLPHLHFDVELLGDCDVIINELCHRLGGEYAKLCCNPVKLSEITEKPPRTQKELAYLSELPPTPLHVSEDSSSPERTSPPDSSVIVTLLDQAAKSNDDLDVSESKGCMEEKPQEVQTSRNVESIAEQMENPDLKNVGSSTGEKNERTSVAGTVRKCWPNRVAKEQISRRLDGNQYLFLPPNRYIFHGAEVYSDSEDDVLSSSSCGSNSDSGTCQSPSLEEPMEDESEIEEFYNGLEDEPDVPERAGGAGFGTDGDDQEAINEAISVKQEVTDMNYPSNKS
Briefly: Trp mass spectrometry assay (SIRT1 activation). The conditions noted are these: Trp mass spectrometry assay; EC1.5 = concentration of test compound that results in 150% activation of SIRT1. Type of assay: biochemical. An excerpt:
Mass spectrometry based assays were used to identify modulators of SIRT1 activity. […] The peptide was labeled with the fluorophore 5TMR (excitation 540 nm/emission 580 nm) at the C-terminus. The sequence of the peptide substrate was based on p53 with several modifications. In addition, the methionine residue naturally present in the sequence was replaced with the norleucine because the methionine may be susceptible to oxidation during synthesis and purification. The Trp based assay utilized a peptide having an amino acid residues as follows: Ac-R-H-K-K(Ac)-W-NH2 (SEQ ID NO: 2).
The Trp mass spectrometry assay was conducted as follows. 0.5 μM peptide substrate and 120 μM βNAD^+ were incubated with 10 nM SIRT1 for 25 minutes at 25° C. in a reaction buffer (50 mM HEPES pH 7.5, […] NaCl, 1 mM DTT, 0.05% BSA). The SIRT1 protein was obtained by cloning the SirT1 gene into a T7-promoter containing vector, which was then expressed in BL21(DE3) bacterial cells and purified as described in further detail below. Test compound was added at varying concentrations to this reaction mixture and the resulting reactions were monitored. After the 25 minute incubation with SIRT1, 10 μL of 10% formic acid was added to stop the reaction. The resulting reactions were sealed and frozen for later mass spec analysis. The relative SIRT1 activity was then determined by measuring the amount of 0-acetyl-ADP-ribose (OAADPR) formed (or, alternatively, the amount of deacetylated Trp peptide generated) by the NAD-dependent sirtuin deacetylation reaction in the presence of varying concentrations of the test compound versus control reactions lacking the test compound. The degree to which the test agent activated deacetylation by SIRT1 was expressed as EC1.5 (i.e., the concentration of compound required to increase SIRT1 activity by 50% over the control lacking test compound), and Percent Maximum Activation (i.e., the maximum activity relative to control (100%) obtained for the test compound).
A control for activation of sirtuin activity was conducted using 10 nM of sirtuin protein, with 1 μL of DMSO in place of compound, to determine the amount of deacetylation of the substrate at a given time point within the linear range of the assay. This time point was the same as that used for test compounds and, within the linear range, the endpoint represents a change in velocity.
For the above assay, SIRT1 protein was expressed and purified as follows. The SirT1 gene was cloned into a T7-promoter containing vector and transformed into BL21(DE3). The protein was expressed by induction with 1 mM IPTG as an N-terminal His-tag fusion protein at 18° C. overnight and harvested at 30,000×g. Cells were lysed with lysozyme in lysis buffer (50 mM Tris-HCl, 2 mM Tris[2-carboxyethyl] phosphine (TCEP), 10 μM ZnCl2, 200 mM NaCl) and further treated with sonication for 10 min for complete lysis. The protein was purified over a Ni-NTA column (Amersham) and fractions containing pure protein were pooled, concentrated and run over a sizing column (Sephadex S200 26/60 global). The peak containing soluble protein was collected and run on an Ion-exchange column (MonoQ). Gradient elution (200 mM-500 mM NaCl) yielded pure protein. This protein was concentrated and dialyzed against dialysis buffer (20 mM Iris-HCl, 2 mM TCEP) overnight. The protein was aliquoted and frozen at −80° C. until further use.
Regarding `Cc1cc(OCC(O)CO)nc(NC(=O)N2c3nc(-c4cccc(C(F)(F)F)c4)ccc3N3CC[C@H]2C3)n1` (some centres unmarked) [Example 26], the “Tryp AVG EC1.5 (μM)” value is “B (EC1.5 1-25 μM)”. On the same count and under the same terms, the value for `CCN(CC)C(=O)N1c2nc(-c3cccc(C(F)(F)F)c3)ccc2N2CC[C@H]1C2` [Example 52] was “C (EC1.5>25 μM)”.

Still in this assay, the particulars now being: Trp mass spectrometry assay; percent maximum fold activation of SIRT1; read-out: Tryp % Fold Act.
As to `Cc1cc(OCC(O)CO)nc(NC(=O)N2c3nc(-c4cccc(C(F)(F)F)c4)ccc3N3CC[C@H]2C3)n1` (some centres unmarked) [Example 26], the Emax was at least 150%. In the case of `O=C(Nc1cnccn1)N1c2nc(-c3cccc(C(F)(F)F)c3)ccc2N2CCC[C@H]1C2` [Example 27], the Emax was at least 150%. The same measure, in the same setting: then `O=C(Nc1cccnn1)N1c2nc(-c3cccc(C(F)(F)F)c3)ccc2N2CCC[C@H]1C2` [Example 28], with at least 150%. Same read-out and setting: then `O=C(Nc1ccncn1)N1c2nc(-c3cccc(C(F)(F)F)c3)ccc2N2CCC[C@H]1C2` [Example 29], with at least 150%; and `Cc1cc(C)nc(NC(=O)N2c3nc(-c4cccc(C(F)(F)F)c4)ccc3N3CCC[C@H]2C3)c1` [Example 30], with at least 150%. Same read-out and setting: then `COc1cc(NC(=O)N2c3nc(-c4cccc(C(F)(F)F)c4)ccc3N3CCC[C@H]2C3)nc(OC)n1` [Example 31], with at least 150%; and `COc1nccc(NC(=O)N2c3nc(-c4cccc(C(F)(F)F)c4)ccc3N3CCC[C@H]2C3)n1` [Example 32], with at least 150%. For the compound `Cc1nc(NC(=O)N2c3nc(-c4cccc(C(F)(F)F)c4)ccc3N3CCC[C@H]2C3)sc1C` [Example 33], the Emax was at least 150%. Regarding `COc1cc(NC(=O)N2c3nc(-c4cccc(C(F)(F)F)c4)ccc3N3CC[C@H]2C3)ncn1` [Example 34], the Emax is at least 150%. Same read-out and setting: then `Cc1cccnc1NC(=O)N1c2nc(-c3cccc(C(F)(F)F)c3)ccc2N2CCC[C@H]1C2` [Example 35], with at least 150%; and `Cn1ccc(NC(=O)N2c3nc(-c4cccc(C(F)(F)F)c4)ccc3N3CCC[C@H]2C3)n1` [Example 36], with at least 150%; and `Cc1cnccc1NC(=O)N1c2nc(-c3cccc(C(F)(F)F)c3)ccc2N2CCC[C@H]1C2` [Example 37], with at least 150%.

Regarding `O=C(Nc1cncnc1)N1c2nc(-c3cccc(C(F)(F)F)c3)ccc2N2CCC[C@H]1C2` [Example 38], the Emax is at least 150%.

For `O=C(Nc1ccc(F)cn1)N1c2nc(-c3cccc(C(F)(F)F)c3)ccc2N2CCC[C@H]1C2` [Example 39], the Emax was at least 150%. As for `Cn1cc(NC(=O)N2c3nc(-c4cccc(C(F)(F)F)c4)ccc3N3CCC[C@H]2C3)cn1` [Example 40], the Emax was at least 150%.

In the case of `COc1cc(NC(=O)N2c3nc(-c4cccc(C(F)(F)F)c4)ccc3N3CCC[C@H]2C3)ncn1` [Example 41], the Emax is at least 150%. `O=C(Nc1ccncc1F)N1c2nc(-c3cccc(C(F)(F)F)c3)ccc2N2CCC[C@H]1C2` [Example 42]: the Emax is at least 150%. Still for that read-out and setting: then `O=C(Nc1ccc(F)cn1)N1c2nc(-c3cccc(Cl)c3)ccc2N2CC[C@H]1C2` [Example 43], with at least 150%; and `Cc1cnccc1NC(=O)N1c2nc(-c3cccc(Cl)c3)ccc2N2CC[C@H]1C2` [Example 44], with at least 150%. Take `O=C(Nc1cncc(F)c1)N1c2nc(-c3cccc(C(F)(F)F)c3)ccc2N2CCC[C@H]1C2` [Example 45]: the Emax is at least 150%. As for `O=C(Nc1ccc(F)cn1)N1c2nc(-c3cccc(C(F)(F)F)c3)ccc2N2CC[C@H]1C2` [Example 46], the Emax is at least 150%. Same read-out and setting: then `COc1nccc(NC(=O)N2c3nc(-c4cccc(C(F)(F)F)c4)ccc3N3CC[C@H]2C3)n1` [Example 47], with at least 150%; and `Cc1nc(NC(=O)N2c3nc(-c4cccc(C(F)(F)F)c4)ccc3N3CC[C@H]2C3)sc1C` [Example 48], with at least 150%; and `Cn1cc(NC(=O)N2c3nc(-c4cccc(C(F)(F)F)c4)ccc3N3CC[C@H]2C3)cn1` [Example 49], with at least 150%. The same measure, in the same setting: the value for `COc1nccc(NC(=O)N2c3nc(-c4cccc(Cl)c4)ccc3N3CC[C@H]2C3)n1` [Example 50] was at least 150%; that for `CC(C)NC(=O)N1c2nc(-c3cccc(C(F)(F)F)c3)ccc2N2CC[C@H]1C2` [Example 51] was at least 150%. On to `CCN(CC)C(=O)N1c2nc(-c3cccc(C(F)(F)F)c3)ccc2N2CC[C@H]1C2` [Example 52], for which the Emax was below 150%.

Regarding `O=C(Nc1cc(OCC(O)CO)ccn1)N1c2nc(-c3cccc(C(F)(F)F)c3)ccc2N2CC[C@H]1C2` (some centres unmarked) [Example 53], the Emax is at least 150%.

As to `O=C(Nc1ccnc(OCC(O)CO)n1)N1c2nc(-c3cccc(Cl)c3)ccc2N2CC[C@H]1C2` (some centres unmarked) [Example 54], the Emax is at least 150%.

On to `Cc1cc(OCC(O)CO)nc(NC(=O)N2c3nc(-c4cccc(Cl)c4)ccc3N3CC[C@H]2C3)n1` (some centres unmarked) [Example 55], for which the Emax was at least 150%. Same read-out and setting: the value for `Cc1csc(NC(=O)N2c3nc(-c4cccc(C(F)(F)F)c4)ccc3N3CC[C@H]2C3)n1` [Example 56] was at least 150%; that for `O=C(Nc1ccccn1)N1c2nc(-c3cccc(F)c3)ccc2N2CC[C@H]1C2` [Example 57] was at least 150%; that for `O=C(Nc1cccnn1)N1c2nc(-c3cccc(F)c3)ccc2N2CC[C@H]1C2` [Example 58] was at least 150%. For `O=C(Nc1ccc(F)cn1)N1c2nc(-c3cccc(F)c3)ccc2N2CC[C@H]1C2` [Example 59], the Emax was at least 150%. Regarding `COc1nccc(NC(=O)N2c3nc(-c4cccc(F)c4)ccc3N3CC[C@H]2C3)n1` [Example 60], the Emax is at least 150%. Same read-out and setting: then `Cc1cc(NC(=O)N2c3nc(-c4cccc(C(F)(F)F)c4)ccc3N3CC[C@H]2C3)ccn1` [Example 61], with at least 150%; and `Cc1cnccc1NC(=O)N1c2nc(-c3cccc(F)c3)ccc2N2CC[C@H]1C2` [Example 62], with at least 150%.

In the case of `O=C(Nc1cncc(OCC(O)CO)n1)N1c2nc(-c3cccc(Cl)c3)ccc2N2CC[C@H]1C2` (some centres unmarked) [Example 63], the Emax is at least 150%. Still for that read-out and setting: then `Cc1cc(OCC(O)CO)nc(NC(=O)N2c3nc(-c4cccc(F)c4)ccc3N3CC[C@H]2C3)n1` (some centres unmarked) [Example 64], with at least 150%; and `O=C(Nc1ccnc(OCC(O)CO)n1)N1c2nc(-c3cccc(F)c3)ccc2N2CC[C@H]1C2` (some centres unmarked) [Example 65], with at least 150%; and `O=C(Nc1ccnc(OC[C@H](O)CO)c1)N1c2nc(-c3cccc(Cl)c3)ccc2N2CC[C@H]1C2` [Example 66], with at least 150%. On the same count and under the same terms, then `CC(C)c1cccc(C(C)C)c1NC(=O)N1c2nc(-c3cccc(C(F)(F)F)c3)ccc2N2CC[C@H]1C2` [Example 67], with below 150%; and `CCc1cccc(C)c1NC(=O)N1c2nc(-c3cccc(C(F)(F)F)c3)ccc2N2CC[C@H]1C2` [Example 69], with below 150%.

Consider `CC(C)(C)c1ccccc1NC(=O)N1c2nc(-c3cccc(C(F)(F)F)c3)ccc2N2CC[C@H]1C2` [Example 70], for which the Emax was below 150%.

`CCc1cccc(CC)c1NC(=O)N1c2nc(-c3cccc(C(F)(F)F)c3)ccc2N2CC[C@H]1C2` [Example 71]: the Emax is below 150%.
